In ChEMBL document CHEMBL1201862, “PubChem BioAssay data set” (2004):
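96-well plates; 48 h exposure; 5 concentrations. Endpoints by linear interpolation between flanking doses. Not reached: highest tested concentration assigned. GI50 = concentration required for 50% inhibition of growth.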 Activity calls are given as the source filed them. Cut-off read from the data, not from the text of the source: active = GI50 up to about 1.1 µM and inactive = higher.

Tests used:
Experiment in all cases: inhibition of tumour cell growth, NCI panel, 48 h
[1] = tested on: NCI-H522
[2] = tested on: A549
[3] = tested on: SW-620
[4] = tested on: MCF7
[5] = tested on: 786-0
[6] = tested on: M14
[7] = tested on: NCI-H226
[8] = tested on: SF-295
[9] = tested on: LOX IMVI
[10] = tested on: SN12C
[11] = tested on: EKVX
[12] = tested on: SNB-19
[13] = tested on: SK-OV-3
[14] = tested on: OVCAR-5
[15] = tested on: UACC-257
[16] = tested on: HCC 2998
[17] = tested on: CAKI-1
[18] = tested on: MDA-MB-435
[19] = tested on: COLO 205
[20] = tested on: DU-145

SMILES: Nc1nn2c(C(Br)Br)cc(C(Br)Br)nc2c1[N+](=O)[O-]
- GI50 [1]: 0.37 µM (active)
- GI50 [2]: 2.43 µM (inactive)
- GI50 [3]: 0.244 µM (active)
- GI50 [4]: 0.826 µM (active)
- GI50 [5]: 0.336 µM (active)
- GI50 [6]: 0.627 µM (active)
- GI50 [7]: 2.21 µM (inactive)
- GI50 [8]: 1.77 µM (inactive)
- GI50 [9]: 0.269 µM (active)
- GI50 [10]: 1.6 µM (inactive)
- GI50 [11]: 2.37 µM (inactive)
- GI50 [12]: 1.61 µM (inactive)
- GI50 [13]: 3.43 µM (inactive)
- GI50 [14]: 1.72 µM (inactive)
- GI50 [15]: 1.32 µM (inactive)
- GI50 [16]: 2.17 µM (inactive)
- GI50 [17]: 0.5 µM (active)
- GI50 [18]: 0.587 µM (active)
- GI50 [19]: 0.659 µM (active)
- GI50 [20]: 1.68 µM (inactive)

SMILES: O=C(c1ccccc1)N1CCN(C(=S)N(C(=O)c2ccccc2)c2ccccc2)C1=S
- GI50 [1]: 1.87 µM (inactive)
- GI50 [2]: 5.26 µM (inactive)
- GI50 [3]: 3.31 µM (inactive)
- GI50 [4]: 3.13 µM (inactive)
- GI50 [5]: 2.09 µM (inactive)
- GI50 [6]: 3.17 µM (inactive)
- GI50 [7]: 10.7 µM (inactive)
- GI50 [8]: 12.6 µM (inactive)
- GI50 [9]: 1.9 µM (inactive)
- GI50 [10]: 3.18 µM (inactive)
- GI50 [11]: 5.92 µM (inactive)
- GI50 [12]: 13.3 µM (inactive)
- GI50 [13]: 15.5 µM (inactive)
- GI50 [14]: 15.9 µM (inactive)
- GI50 [15]: 8.49 µM (inactive)
- GI50 [16]: 6.5 µM (inactive)
- GI50 [17]: 2.47 µM (inactive)
- GI50 [18]: 3.84 µM (inactive)
- GI50 [19]: 3.28 µM (inactive)
- GI50 [20]: 3.01 µM (inactive)

SMILES: CCN(CC)COC(=S)S
- GI50 [1]: 3.61 µM (inactive)
- GI50 [2]: > 100 µM (inactive)
- GI50 [3]: 24.2 µM (inactive)
- GI50 [4]: > 100 µM (inactive)
- GI50 [5]: 33.3 µM (inactive)
- GI50 [6]: 44.1 µM (inactive)
- GI50 [7]: > 100 µM (inactive)
- GI50 [8]: > 77.6 µM (inactive)
- GI50 [9]: 41.8 µM (inactive)
- GI50 [10]: > 100 µM (inactive)
- GI50 [11]: > 100 µM (inactive)
- GI50 [12]: > 100 µM (inactive)
- GI50 [13]: > 100 µM (inactive)
- GI50 [14]: > 100 µM (inactive)
- GI50 [15]: 27.5 µM (inactive)
- GI50 [16]: > 49.9 µM (inactive)
- GI50 [17]: > 67 µM (inactive)
- GI50 [18]: 38.3 µM (inactive)
- GI50 [19]: 78 µM (inactive)
- GI50 [20]: 54.6 µM (inactive)

SMILES: O=C(O)c1ccc2c(c1)Cc1cc([N+](=O)[O-])ccc1-2
- GI50 [1]: > 100 µM (inactive)
- GI50 [2]: > 100 µM (inactive)
- GI50 [3]: > 100 µM (inactive)
- GI50 [4]: > 100 µM (inactive)
- GI50 [5]: > 100 µM (inactive)
- GI50 [6]: > 100 µM (inactive)
- GI50 [7]: 52.1 µM (inactive)
- GI50 [8]: 90.8 µM (inactive)
- GI50 [9]: > 100 µM (inactive)
- GI50 [10]: > 100 µM (inactive)
- GI50 [11]: > 100 µM (inactive)
- GI50 [12]: > 100 µM (inactive)
- GI50 [13]: > 100 µM (inactive)
- GI50 [14]: > 100 µM (inactive)
- GI50 [15]: 44.1 µM (inactive)
- GI50 [16]: > 100 µM (inactive)
- GI50 [17]: 71.4 µM (inactive)
- GI50 [18]: > 100 µM (inactive)
- GI50 [19]: > 100 µM (inactive)
- GI50 [20]: > 100 µM (inactive)

SMILES: CCOC(=O)/C(C#N)=C(/NNc1ccccc1)c1ccncc1C(=O)O
- GI50 [1]: > 100 µM (inactive)
- GI50 [2]: > 52.7 µM (inactive)
- GI50 [3]: 3.27 µM (inactive)
- GI50 [4]: > 64.9 µM (inactive)
- GI50 [5]: > 100 µM (inactive)
- GI50 [6]: 5.66 µM (inactive)
- GI50 [7]: > 100 µM (inactive)
- GI50 [8]: 5.47 µM (inactive)
- GI50 [9]: 2.81 µM (inactive)
- GI50 [10]: > 100 µM (inactive)
- GI50 [11]: > 100 µM (inactive)
- GI50 [12]: > 100 µM (inactive)
- GI50 [13]: > 100 µM (inactive)
- GI50 [14]: > 72.1 µM (inactive)
- GI50 [15]: 26.2 µM (inactive)
- GI50 [16]: > 22.4 µM (inactive)
- GI50 [17]: > 73.1 µM (inactive)
- GI50 [18]: 5.68 µM (inactive)
- GI50 [19]: 4.37 µM (inactive)
- GI50 [20]: > 42.7 µM (inactive)

SMILES: COC/C=C\[C@@]1(O)CCCC[C@@H]1CC(OC)OC
- GI50 [1]: 17.5 µM (inactive)
- GI50 [2]: 68.7 µM (inactive)
- GI50 [3]: 32.5 µM (inactive)
- GI50 [4]: 2.75 µM (inactive)
- GI50 [5]: 30 µM (inactive)
- GI50 [6]: 46.7 µM (inactive)
- GI50 [7]: > 59.2 µM (inactive)
- GI50 [8]: 43.4 µM (inactive)
- GI50 [9]: 7.03 µM (inactive)
- GI50 [10]: 17.5 µM (inactive)
- GI50 [11]: > 100 µM (inactive)
- GI50 [12]: 43.6 µM (inactive)
- GI50 [13]: > 100 µM (inactive)
- GI50 [14]: > 100 µM (inactive)
- GI50 [15]: > 100 µM (inactive)
- GI50 [16]: > 100 µM (inactive)
- GI50 [17]: > 100 µM (inactive)
- GI50 [18]: 28.3 µM (inactive)
- GI50 [19]: > 95.5 µM (inactive)
- GI50 [20]: 38.5 µM (inactive)

SMILES: CNC(=O)N(C1=NCC(C)S1)c1ccc(C)c(C)c1 (stereo not given)
- GI50 [1]: 4.82 µM (inactive)
- GI50 [2]: 6.52 µM (inactive)
- GI50 [3]: 3.48 µM (inactive)
- GI50 [4]: 2.77 µM (inactive)
- GI50 [5]: 4.74 µM (inactive)
- GI50 [6]: 1.13 µM (inactive)
- GI50 [7]: 4.6 µM (inactive)
- GI50 [8]: 3.17 µM (inactive)
- GI50 [9]: 5.09 µM (inactive)
- GI50 [10]: 7.23 µM (inactive)
- GI50 [11]: 6.55 µM (inactive)
- GI50 [12]: 6.64 µM (inactive)
- GI50 [13]: 4.28 µM (inactive)
- GI50 [14]: 15.6 µM (inactive)
- GI50 [15]: 16.1 µM (inactive)
- GI50 [16]: 4.28 µM (inactive)
- GI50 [17]: 2.7 µM (inactive)
- GI50 [18]: 0.706 µM (active)
- GI50 [19]: 3.56 µM (inactive)
- GI50 [20]: 7.5 µM (inactive)
